Data published in publication PMC10731000, “Functional characterization of three G protein-coupled acetylcholine receptors in parasitic nematode Trichinella spiralis” (International Journal for Parasitology: Drugs and Drug …, 2023).
Where a name gives a salt, the structure may show the parent alone. Read-outs that look alike come from different tables or passages of the source.

Columns and labels:
C. elegans GAR-1 = tested on: C. elegans GAR-1; set-up: method as in Lee et al., 1999, Lee et al., 2000; settings: ref Lee et al., 1999, Lee et al., 2000; cited from earlier work
A. suum GAR-1 = tested on: A. suum GAR-1; set-up: method as in Kimber et al., 2009; settings: ref Kimber et al., 2009; cited from earlier work
TsGAR-1 [1] = target: T1, TsGAR-1 (Trichinella spiralis, UniProt A0A0V1C1R2); assay: Aequorin antagonist assay (block of 10 μM ACh response) in CHO-K1 cells expressing TsGAR-1; format: cell-based; settings: co-expressed with Gα15(16)
T1 sequence (A0A0V1C1R2 entry or part of it): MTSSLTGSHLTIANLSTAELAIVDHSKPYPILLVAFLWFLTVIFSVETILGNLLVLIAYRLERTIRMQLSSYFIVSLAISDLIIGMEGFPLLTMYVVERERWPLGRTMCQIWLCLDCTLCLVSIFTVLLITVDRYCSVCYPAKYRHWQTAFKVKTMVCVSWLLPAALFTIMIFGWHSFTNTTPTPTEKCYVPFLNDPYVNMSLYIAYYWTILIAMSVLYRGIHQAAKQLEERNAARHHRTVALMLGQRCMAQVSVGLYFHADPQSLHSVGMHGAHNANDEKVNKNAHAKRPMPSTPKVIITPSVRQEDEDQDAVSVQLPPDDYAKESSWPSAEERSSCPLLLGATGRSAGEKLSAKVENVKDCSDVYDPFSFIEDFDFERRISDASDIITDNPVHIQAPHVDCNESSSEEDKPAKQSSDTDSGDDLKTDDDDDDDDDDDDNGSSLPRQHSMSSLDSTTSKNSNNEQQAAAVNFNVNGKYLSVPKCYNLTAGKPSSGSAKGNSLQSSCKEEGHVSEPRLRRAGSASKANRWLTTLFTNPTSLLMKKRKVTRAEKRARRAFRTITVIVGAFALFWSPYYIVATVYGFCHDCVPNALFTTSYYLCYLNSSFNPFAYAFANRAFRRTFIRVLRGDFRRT
Text: (§1) T. spiralis GARs were heterologously expressed in CHO–K1 cells (Sigma) along with the aequorin reporter—with or without the wild-type human G protein alpha 15 subunit (Gα15(16)) (cDNA Resource Center, Bloomsburg University of Pennsylvania)—to observe activation of the receptor by monitoring bioluminescence triggered by the mobilization of intracellular calcium ([Offermanns and Simon, 1995]; [Park et al., 2002]). Therefore, there were two types of transient expression: i) TsGAR-1, -2, or -3/aequorin/Gα15(16); and ii) TsGAR-1, -2, or -3/aequorin. The use of Gα15(16) in the first assay is due to its highly efficient way of linking calcium mobilization signaling pathways to GPCRs that are preferentially coupling with Gi/o or Gs protein members ([Offermanns and Simon, 1995]).
For handling cell lines, all transfection details, and monitoring receptor activities, we followed the previously published study ([Šimo et al., 2011], [2013]; [Mateos-Hernández et al., 2020]). Briefly, CHO–K1 cells were kept in growth medium (Ham's F12 Media with 10% fetal bovine serum) until 70% of confluence was reached. FuGENE® HD Transfection Reagent (Promega) was then used to transfect the plasmid constructs. Prior to the assay, the cells were pre-equilibrated with coelenterazine h (Promega) for 3 h at room temperature. The assay was performed in opaque 96-well microplates (Nunc) using either Fluostar Omega (BMG Labtech) or GloMax® Plate Reader (Promega). In agonist assays, 50 μL of various doses of agonistic ligands were added to wells in triplicate, followed by injection of 50μL/∼15,000 of CHO–K1 cells. Immediately after the cell injections, luminescence values were monitored for 25 s and their integrated values over time were normalized to the largest positive control response in each plate (45 μM ACh) after background noise was subtracted. When performing the antagonist assay, cells were pre-incubated with different doses of antagonistic ligands for 5 min in RT (in a 96-well plate) and subsequently a 50 μL of 10 μM ACh solution was injected into the wells. The changes in luminescence were measured for 25 s immediately after injecting ACh, and time integrated values were normalized to the response of those wells in each plate that only contained cells with medium. A dose-response curve was plotted afterwards for each data set and half-maximum response values (EC50 or IC50) along the Hill coefficient (nH) were calculated using GraphPad Prism 8.0 (GraphPad Software). Two and three biological replicates were performed for the testing of T. spiralis GARs with or without the Gα15(16) and agonistic or antagonistic assay, respectively, with three technical replicates for each ligand. […]

TsGAR-3 [2] = target: T2, TsGAR-3 (Trichinella spiralis, UniProt E5S5F5); assay: Aequorin antagonist assay (block of 10 μM ACh response) in CHO-K1 cells expressing TsGAR-3; format: cell-based
T2 sequence (E5S5F5 entry or part of it): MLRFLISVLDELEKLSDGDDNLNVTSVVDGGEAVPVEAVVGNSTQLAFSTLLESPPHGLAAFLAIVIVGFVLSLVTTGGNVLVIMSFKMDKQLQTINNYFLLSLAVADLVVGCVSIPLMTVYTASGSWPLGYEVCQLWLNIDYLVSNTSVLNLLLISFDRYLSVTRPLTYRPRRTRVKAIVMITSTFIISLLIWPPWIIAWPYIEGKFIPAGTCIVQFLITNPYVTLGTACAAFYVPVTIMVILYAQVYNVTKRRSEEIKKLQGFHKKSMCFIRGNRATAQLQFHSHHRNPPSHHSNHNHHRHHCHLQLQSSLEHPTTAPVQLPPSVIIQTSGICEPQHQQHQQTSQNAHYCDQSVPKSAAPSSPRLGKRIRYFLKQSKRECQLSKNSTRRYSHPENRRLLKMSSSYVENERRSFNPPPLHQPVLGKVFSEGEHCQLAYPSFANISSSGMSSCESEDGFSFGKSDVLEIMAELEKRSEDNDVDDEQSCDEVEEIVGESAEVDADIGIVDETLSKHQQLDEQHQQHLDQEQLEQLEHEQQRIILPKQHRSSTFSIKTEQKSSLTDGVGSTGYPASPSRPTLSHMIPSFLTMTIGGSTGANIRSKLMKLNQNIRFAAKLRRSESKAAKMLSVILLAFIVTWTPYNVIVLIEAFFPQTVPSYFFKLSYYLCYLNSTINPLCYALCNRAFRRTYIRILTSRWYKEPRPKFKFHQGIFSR
Protocol: Therefore, there were two types of transient expression: i) TsGAR-1, -2, or -3/aequorin/Gα15(16); and ii) TsGAR-1, -2, or -3/aequorin.
Briefly, CHO–K1 cells were kept in growth medium (Ham's F12 Media with 10% fetal bovine serum) until 70% of confluence was reached. FuGENE® HD Transfection Reagent (Promega) was then used to transfect the plasmid constructs. Prior to the assay, the cells were pre-equilibrated with coelenterazine h (Promega) for 3 h at room temperature. The assay was performed in opaque 96-well microplates (Nunc) using either Fluostar Omega (BMG Labtech) or GloMax® Plate Reader (Promega). In agonist assays, 50 μL of various doses of agonistic ligands were added to wells in triplicate, followed by injection of 50μL/∼15,000 of CHO–K1 cells. […] When performing the antagonist assay, cells were pre-incubated with different doses of antagonistic ligands for 5 min in RT (in a 96-well plate) and subsequently a 50 μL of 10 μM ACh solution was injected into the wells. The changes in luminescence were measured for 25 s immediately after injecting ACh, and time integrated values were normalized to the response of those wells in each plate that only contained cells with medium. A dose-response curve was plotted afterwards for each data set and half-maximum response values (EC50 or IC50) along the Hill coefficient (nH) were calculated using GraphPad Prism 8.0 (GraphPad Software). Two and three biological replicates were performed for the testing of T. spiralis GARs with or without the Gα15(16) and agonistic or antagonistic assay, respectively, with three technical replicates for each ligand. In terms of negative controls, a mock transfection was performed using empty pcDNA3.1 (+) plasmid, with an aequorin reporter and Gα15(16) subunit. To confirm the specificity of T. spiralis GAR-1, -2, and -3 affinity, we tested dopamine, octopamine and norepinephrine chemical agents.

C. elegans GAR-2 = tested on: C. elegans GAR-2; set-up: method as in Lee et al., 1999, Lee et al., 2000; settings: ref Lee et al., 1999, Lee et al., 2000; cited from earlier work
TsGAR-2 [3] = target: T3, TsGAR-2 (Trichinella spiralis, UniProt E5SAZ1); assay: Aequorin antagonist assay (block of 10 μM ACh response) in CHO-K1 cells expressing TsGAR-2; format: cell-based; settings: co-expressed with Gα15(16)
T3 sequence (E5SAZ1 entry or part of it): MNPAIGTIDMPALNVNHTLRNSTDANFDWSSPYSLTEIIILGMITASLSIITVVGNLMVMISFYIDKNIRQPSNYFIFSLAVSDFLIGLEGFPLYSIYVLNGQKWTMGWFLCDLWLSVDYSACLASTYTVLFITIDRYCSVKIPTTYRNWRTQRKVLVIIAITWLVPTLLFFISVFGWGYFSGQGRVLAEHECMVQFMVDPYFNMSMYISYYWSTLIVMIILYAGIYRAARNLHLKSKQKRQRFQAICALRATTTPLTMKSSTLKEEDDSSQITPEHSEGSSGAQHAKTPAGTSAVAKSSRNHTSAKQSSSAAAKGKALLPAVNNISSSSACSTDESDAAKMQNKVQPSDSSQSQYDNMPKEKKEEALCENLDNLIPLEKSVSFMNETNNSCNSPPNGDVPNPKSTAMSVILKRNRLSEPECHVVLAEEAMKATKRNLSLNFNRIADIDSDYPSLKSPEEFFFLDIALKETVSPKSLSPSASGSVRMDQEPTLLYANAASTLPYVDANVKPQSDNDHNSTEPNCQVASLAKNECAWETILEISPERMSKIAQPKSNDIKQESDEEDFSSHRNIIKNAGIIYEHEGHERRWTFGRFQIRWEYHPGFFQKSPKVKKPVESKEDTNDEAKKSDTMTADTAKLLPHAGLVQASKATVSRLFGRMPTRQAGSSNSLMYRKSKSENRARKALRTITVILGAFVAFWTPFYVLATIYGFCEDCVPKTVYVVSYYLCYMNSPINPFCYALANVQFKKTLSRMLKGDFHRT
Text: as §1
(§2) For handling cell lines, all transfection details, and monitoring receptor activities, we followed the previously published study ([Šimo et al., 2011], [2013]; [Mateos-Hernández et al., 2020]). Briefly, CHO–K1 cells were kept in growth medium (Ham's F12 Media with 10% fetal bovine serum) until 70% of confluence was reached. FuGENE® HD Transfection Reagent (Promega) was then used to transfect the plasmid constructs. Prior to the assay, the cells were pre-equilibrated with coelenterazine h (Promega) for 3 h at room temperature. The assay was performed in opaque 96-well microplates (Nunc) using either Fluostar Omega (BMG Labtech) or GloMax® Plate Reader (Promega). In agonist assays, 50 μL of various doses of agonistic ligands were added to wells in triplicate, followed by injection of 50μL/∼15,000 of CHO–K1 cells. Immediately after the cell injections, luminescence values were monitored for 25 s and their integrated values over time were normalized to the largest positive control response in each plate (45 μM ACh) after background noise was subtracted. When performing the antagonist assay, cells were pre-incubated with different doses of antagonistic ligands for 5 min in RT (in a 96-well plate) and subsequently a 50 μL of 10 μM ACh solution was injected into the wells. The changes in luminescence were measured for 25 s immediately after injecting ACh, and time integrated values were normalized to the response of those wells in each plate that only contained cells with medium. A dose-response curve was plotted afterwards for each data set and half-maximum response values (EC50 or IC50) along the Hill coefficient (nH) were calculated using GraphPad Prism 8.0 (GraphPad Software). Two and three biological replicates were performed for the testing of T. spiralis GARs with or without the Gα15(16) and agonistic or antagonistic assay, respectively, with three technical replicates for each ligand. In terms of negative controls, a mock transfection was performed using empty pcDNA3.1 (+) plasmid, with an aequorin reporter and Gα15(16) subunit. To confirm the specificity of T. spiralis GAR-1, -2, and -3 affinity, we tested dopamine, octopamine and norepinephrine chemical agents.

TsGAR-1 [4] = target: T1, TsGAR-1; assay: Aequorin calcium mobilization agonist assay in CHO-K1 cells expressing TsGAR-1; format: cell-based; settings: for ACh-mediated calcium mobilization via TsGAR-1 (in words): Fig. 4
Text: as §1, §2

TsGAR-3 [5] = target: T2, TsGAR-3; assay: Aequorin calcium mobilization agonist assay in CHO-K1 cells expressing TsGAR-3; format: cell-based; settings: for ACh-mediated calcium mobilization via TsGAR-3 (in words): Fig. 4
Text: as §1, §2

TsGAR-2 [6] = target: T3, TsGAR-2; assay: Aequorin calcium mobilization agonist assay in CHO-K1 cells expressing TsGAR-2; format: cell-based; settings: for ACh-mediated calcium mobilization via TsGAR-2 (in words): Fig. 4
Text: as §1, §2

D. melanogaster mAChR-B = tested on: D. melanogaster mAChR-B; set-up: method as in Collin et al., 2013; settings: times lower sensitivity than mAChR-A; ref Collin et al., 2013; cited from earlier work
T. castaneum mAChR-B = tested on: T. castaneum mAChR-B; set-up: method as in Collin et al., 2013; settings: times lower sensitivity than mAChR-A; ref Collin et al., 2013; cited from earlier work
[7] = agonist, co-expressed with Gα15(16)
[8] = expressed alone, without Gα15(16)

Compound: CCCOC(C(=O)OC1CCN(C)CC1)(c1ccccc1)c1ccccc1 [Propiverine, propiverine hydrochloride]
- antagonist effect on C. elegans GAR-1 (in words) (C. elegans GAR-1): largely no effect
- antagonist effect on A. suum GAR-1 (in words) (A. suum GAR-1): largely no effect
- IC50 (TsGAR-1 [1]; antagonist vs 10 μM ACh, read-out: IC50 ± SE (nM), TsGAR-1): > 10000 nM
- antagonist effect on TsGAR-1 (in words) (TsGAR-1 [1]): partially blocked
- IC50 (TsGAR-3 [2]): > 10000 nM
- nH (Hill coefficient), antagonist, TsGAR-3 (TsGAR-3 [2]; antagonist, without Gα15(16)): −0.6649
- antagonist effect on TsGAR-3 (in words) (TsGAR-3 [2]; without Gα15(16)): partially blocked
- antagonist effect on C. elegans GAR-2 (in words) (C. elegans GAR-2): largely no effect
- IC50 (TsGAR-2 [3]; antagonist vs 10 μM ACh, read-out: IC50 ± SE (nM), TsGAR-2): > 10000 nM
- nH (Hill coefficient), antagonist, TsGAR-2 (TsGAR-2 [3]; antagonist): −3.002
- antagonist effect on TsGAR-2 (in words) (TsGAR-2 [3]): partially blocked

Compound: CC(=O)OCC[N+](C)(C)C [Acetylcholine, acetylcholine chloride]
- EC50 (TsGAR-1 [4]; agonist, CHO cells, co-expressed with Gα15(16), SE of three biological replications, read-out: EC50 ± SE (nM), TsGAR-1): 194 ± 18.1 nM
- nH (Hill coefficient), agonist, TsGAR-1 (TsGAR-1 [4]; [7]): 0.8621
- agonist activity on TsGAR-1 (in words) (TsGAR-1 [4]; co-expressed with Gα15(16)): potent activator
- ACh-mediated calcium mobilization via TsGAR-1 (in words) (TsGAR-1 [4]; co-expressed with Gα15(16)): dose-dependent activity
- ACh-mediated calcium mobilization via TsGAR-1 (in words) (TsGAR-1 [4]; [8]): effective responses
- EC50 (TsGAR-3 [5]): 400 ± 73.1 nM
- nH (Hill coefficient), agonist, TsGAR-3 (TsGAR-3 [5]; without Gα15(16)): 0.7319
- ACh-mediated calcium mobilization via TsGAR-3 (in words) (TsGAR-3 [5]; co-expressed with Gα15(16)): dose-dependent activity
- ACh-mediated calcium mobilization via TsGAR-3 (in words) (TsGAR-3 [5]; [8]): effective responses
- agonist activity on TsGAR-3 (in words) (TsGAR-3 [5]; without Gα15(16)): potent activator
- EC50 (TsGAR-2 [6]; agonist, CHO cells, co-expressed with Gα15(16), SE of three biological replications, read-out: EC50 ± SE (nM), TsGAR-2): 14.7 ± 10.8 nM
- nH (Hill coefficient), agonist, TsGAR-2 (TsGAR-2 [6]; [7]): 0.5883
- agonist activity on TsGAR-2 (in words) (TsGAR-2 [6]; co-expressed with Gα15(16)): potent activator
- ACh-mediated calcium mobilization via TsGAR-2 (in words) (TsGAR-2 [6]; co-expressed with Gα15(16)): dose-dependent activity
- ACh-mediated calcium mobilization via TsGAR-2 (in words) (TsGAR-2 [6]; [8]): effective responses

Compound: C[C@@H]1O[C@H](C[N+](C)(C)C)C[C@H]1O [Muscarine, (+)-muscarine chloride]
- agonist activity on TsGAR-1 (in words) (TsGAR-1 [4]; co-expressed with Gα15(16)): no
- EC50 (TsGAR-3 [5]): 2500 ± 960 nM
- nH (Hill coefficient), agonist, TsGAR-3 (TsGAR-3 [5]; without Gα15(16)): 0.7106
- agonist activity on TsGAR-3 (in words) (TsGAR-3 [5]; without Gα15(16)): potent agonist
- EC50 (TsGAR-2 [6]): > 10000 nM
- nH (Hill coefficient), agonist, TsGAR-2 (TsGAR-2 [6]; [7]): 0.8666
- agonist activity on TsGAR-2 (in words) (TsGAR-2 [6]; co-expressed with Gα15(16)): low affinity
- sensitivity of D. melanogaster mAChR-B relative to mAChR-A (D. melanogaster mAChR-B): about 1000 times
- sensitivity of T. castaneum mAChR-B relative to mAChR-A (T. castaneum mAChR-B): ~100 times

Compound: COC(=O)C1=CCCN(C)C1 [Arecoline, arecoline hydrobromide]
- EC50 (TsGAR-1 [4]): 4630 ± 841 nM
- nH (Hill coefficient), agonist, TsGAR-1 (TsGAR-1 [4]; [7]): 1.054
- agonist activity on TsGAR-1 (in words) (TsGAR-1 [4]; co-expressed with Gα15(16)): partial agonist
- agonist activity on A. suum GAR-1 (in words) (A. suum GAR-1): effectively activate
- EC50 (TsGAR-3 [5]): 457 ± 156 nM
- nH (Hill coefficient), agonist, TsGAR-3 (TsGAR-3 [5]; without Gα15(16)): 1.199
- agonist activity on TsGAR-3 (in words) (TsGAR-3 [5]; without Gα15(16)): partial agonist
- agonist activity on TsGAR-2 (in words) (TsGAR-2 [6]; co-expressed with Gα15(16)): did not detect any arecoline-triggered activation
